Assay results published in patent US20230321127A1, “SPERM MOTILITY IMPROVING AGENT AND SPERM MOTILITY IMPROVING METHOD” (MIRAILAB BIOSCIENCE INC., priority 2020, published 2023).

System: swine sperms
Experiment: Swine sperm motility analyzed by CASA during incubation with NMN alone or NMN+PQQ
Format: cell-based
Experimental: Upon arrival of a pack containing swine diluted semen (sperm concentration (total sperm count) 30,000,000/ml, HIRO-SWINE B solution (HIROSHIMA CRYO-PRESERVATION SERVICE) was used as a diluent) provided by Oita Prefectural Agriculture, Forestry and Fisheries Research Center, the pack was immediately stored in an incubator at 15° C. The next day, 5 ml of the above semen from each pack was transferred to a 15 ml centrifuge tube, NMN was added to concentrations from 0.1 to 100 μM (0.1 μM, 1 μM, 10 μM, 100 μM) using HIRO-SWINE B solution as a culture medium, and they were incubated at 37° C. for up to 6 hours. For some diluted semen, pyrrolo-quinoline quinone (PQQ) (MITSUBISHI GAS CHEMICAL COMPANY, INC) was added to a concentration of 100 nM, in addition to NMN or without the addition of NMN, and it was incubated in the same manner. Sperms were taken out at 0, 2, 4, and 6 hours after the start of incubation, and their sperm motility was analyzed using CASA (HT CASA-Ceros II (product name), Hamilton Thorne, Inc.). […] The error bars in FIG. 2 represent standard errors. Sperm motion loci were also photographed by phase contrast microscopy at 2, 4, and 6 hours after the start of incubation and the photographs were shown in FIG. 3.

[1] = NMN alone addition zone (PQQ-), 0.1-100 μM, effect observed up to 4 hours later
[2] = NMN alone addition zone, 6 hours later

NC(=O)c1ccc[n+]([C@@H]2O[C@H](COP(=O)([O-])O)[C@@H](O)[C@H]2O)c1 [NMN, nicotinamide mononucleotide]
total moment (proportion of sperms in motion to total sperms counted) (NMN 0.1-100 μM added to swine diluted semen, 37° C., up to 6 hours): not affected
straight (forward) moment [1]: significantly increased
straight (forward) speed [1]: significantly increased
improving effect on the straight moment [2]: disappeared
improving effect on the straight speed [2]: disappeared
